For this assay, the system named is Hs578T multi-cell spheroids, viability. Put plainly: Anticancer human tumor Hs578T cell line growth inhibition [IpAb].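 On all read-outs here: drug exposure lasted 7 days before readout.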 Conditions: for viability, T/C: stronger effect = lower value. In short, it runs like this: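 Multi-cell spheroids of 60% tumour cells, 25% HUVEC and 15% MSC in ultra-low-attachment U-bottom wells, treated with agents combined with ipatasertib or abemaciclib. Half-log ranges top out near clinical Cmax, or 10 microM when Cmax is unknown.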

The mark [1] stands for this setting: curve of first compound, second compound 0.1 µM.
Where [2] appears, read: curve of first compound, second compound 0.316 µM.
The mark [3] stands for this setting: curve of first compound, second compound 1 µM.

“And” between values parts separate entries of the source, which are not always exact repeats. Equal entries are not always repeated.

For `CC(C)(C)c1cnc(CSc2cnc(NC(=O)C3CCNCC3)s2)o1` + CCN1CCN(Cc2ccc(Nc3ncc(F)c(-c4cc(F)c5nc(C)n(C(C)C)c5c4)n3)nc2)CC1, the IC50 was 181 nM (curve of first compound, second compound 0.01 µM); 181 nM (curve of first compound, second compound 0.0316 µM); 167 nM under setting [1]; 169 nM under setting [2]; 115 nM under setting [3]. Also, the viability, T/C by setting is: (second compound 0.01 µM, first compound 0.00949 µM) 101%; (second compound 0.01 µM, first compound 0.03 µM) 114%; (second compound 0.01 µM, first compound 0.0949 µM) 114%; (second compound 0.01 µM, first compound 0.3 µM) 3.69%; (second compound 0.01 µM, first compound 0.949 µM) 3.37%; (second compound 0.01 µM, first compound 3 µM) 3.55%. The viability, T/C is 99% (second compound 0.0316 µM, first compound 0.00949 µM); 113% (second compound 0.0316 µM, first compound 0.03 µM); 118% (second compound 0.0316 µM, first compound 0.0949 µM); 2.94% (second compound 0.0316 µM, first compound 0.3 µM); 2.55% (second compound 0.0316 µM, first compound 0.949 µM); 2.82% (second compound 0.0316 µM, first compound 3 µM). Besides, the viability, T/C runs as follows: (second compound 0.1 µM, first compound 0.00949 µM) 100%; (second compound 0.1 µM, first compound 0.03 µM) 99.9%; (second compound 0.1 µM, first compound 0.0949 µM) 95.3%; (second compound 0.1 µM, first compound 0.3 µM) 2.53%; (second compound 0.1 µM, first compound 0.949 µM) 2.48%; (second compound 0.1 µM, first compound 3 µM) 3.11%. In addition, the viability, T/C was 104% (second compound 0.316 µM, first compound 0.00949 µM); 104% (second compound 0.316 µM, first compound 0.03 µM); 97.2% (second compound 0.316 µM, first compound 0.0949 µM); 2.46% (second compound 0.316 µM, first compound 0.3 µM); 3.54% (second compound 0.316 µM, first compound 0.949 µM); 3.59% (second compound 0.316 µM, first compound 3 µM). Further, the viability, T/C is 109% (second compound 1 µM, first compound 0.00949 µM); 107% (second compound 1 µM, first compound 0.03 µM); 59.6% (second compound 1 µM, first compound 0.0949 µM); 2.32% (second compound 1 µM, first compound 0.3 µM); 2.79% (second compound 1 µM, first compound 0.949 µM); 4.16% (second compound 1 µM, first compound 3 µM).

Turning to `CCCS(=O)(=O)Nc1ccc(F)c(C(=O)c2c[nH]c3ncc(-c4ccc(Cl)cc4)cc23)c1F`, the viability, T/C reads like this: (compound 0.0316 µM) 95.3% and 98.5%; (compound 0.1 µM) 101% and 109%; (compound 0.316 µM) 109% and 105%; (compound 1 µM) 96.1% and 102%; (compound 3.16 µM) 81.1% and 85.8%; (compound 10 µM) 12.5% and 11.4%. Where the note is “curve of compound”, the IC50 was 5310 nM and 5510 nM.

Turning to `CC(C)n1nc(-c2ccc3oc(N)nc3c2)c2c(N)ncnc21` + CC(C)NCC(C(=O)N1CCN(c2ncnc3c2C(C)CC3O)CC1)c1ccc(Cl)cc1, the IC50 by setting is: under setting [1], 5.88 nM; under setting [2], 3.52 nM; under setting [3], 1.38 nM; (curve of first compound, second compound 3.16 µM) under 0.316 nM; (curve of first compound, second compound 10 µM) under 0.316 nM. The viability, T/C is 94.8% (second compound 0.1 µM, first compound 0.000316 µM); 86.6% (second compound 0.1 µM, first compound 0.001 µM); 63.7% (second compound 0.1 µM, first compound 0.00316 µM); 38.6% (second compound 0.1 µM, first compound 0.01 µM); 19.9% (second compound 0.1 µM, first compound 0.0316 µM); 15.5% (second compound 0.1 µM, first compound 0.1 µM). Moreover, the viability, T/C (second compound 0.316 µM, first compound 0.000316 µM) is 79.2%; the viability, T/C (second compound 0.316 µM, first compound 0.001 µM) is 72.4%; the viability, T/C (second compound 0.316 µM, first compound 0.00316 µM) was 50.8%; the viability, T/C (second compound 0.316 µM, first compound 0.01 µM) was 30.7%; the viability, T/C (second compound 0.316 µM, first compound 0.0316 µM) was 14.2%; the viability, T/C (second compound 0.316 µM, first compound 0.1 µM) is 11.8%. Besides, the viability, T/C by setting is: (second compound 1 µM, first compound 0.000316 µM) 61.7%; (second compound 1 µM, first compound 0.001 µM) 55.3%; (second compound 1 µM, first compound 0.00316 µM) 37.2%; (second compound 1 µM, first compound 0.01 µM) 20.7%; (second compound 1 µM, first compound 0.0316 µM) 14%; (second compound 1 µM, first compound 0.1 µM) 12.2%. The viability, T/C (second compound 3.16 µM, first compound 0.000316 µM) was 47.4%; the viability, T/C (second compound 3.16 µM, first compound 0.001 µM) was 41.4%; the viability, T/C (second compound 3.16 µM, first compound 0.00316 µM) is 28.4%; the viability, T/C (second compound 3.16 µM, first compound 0.01 µM) is 17.3%; the viability, T/C (second compound 3.16 µM, first compound 0.0316 µM) is 12.2%; the viability, T/C (second compound 3.16 µM, first compound 0.1 µM) is 10.4%. The viability, T/C was 48.1% (second compound 10 µM, first compound 0.000316 µM); 35.9% (second compound 10 µM, first compound 0.001 µM); 25.4% (second compound 10 µM, first compound 0.00316 µM); 12% (second compound 10 µM, first compound 0.01 µM); 11.4% (second compound 10 µM, first compound 0.0316 µM); 8.97% (second compound 10 µM, first compound 0.1 µM).

Regarding `C=CCn1c(=O)c2cnc(Nc3ccc(N4CCN(C)CC4)cc3)nc2n1-c1cccc(C(C)(C)O)n1`, the viability, T/C was 98.6% and 100% (compound 0.0316 µM); 77.7% and 83.3% (compound 0.1 µM); 46.2% and 47.5% (compound 0.316 µM); 26% and 25.8% (compound 1 µM); 15.1% and 19.1% (compound 3.16 µM); 17.7% and 17.6% (compound 10 µM). Further, the IC50 (curve of compound) was 275 nM and 295 nM.

Consider `CC(C)n1nc(-c2ccc3oc(N)nc3c2)c2c(N)ncnc21`, for which the viability, T/C (compound 0.000316 µM) is 95.3% and 94.5%; the viability, T/C (compound 0.001 µM) was 92.4% and 104%; the viability, T/C (compound 0.00316 µM) is 74.8% and 76.7%; the viability, T/C (compound 0.01 µM) was 43.1% and 49.1%; the viability, T/C (compound 0.0316 µM) was 20.7% and 20.5%; the viability, T/C (compound 0.1 µM) was 15.8% and 14.6%. Further, the IC50 (curve of compound) was 7.72 nM and 9.02 nM.

Consider `C=CC(=O)N1CCN(c2nc(=O)n(-c3c(C)ccnc3C(C)C)c3nc(-c4c(O)cccc4F)c(F)cc23)C(C)C1` (stereo not given), for which the viability, T/C (compound 0.0316 µM) is 103% and 104%; the viability, T/C (compound 0.1 µM) is 103% and 109%; the viability, T/C (compound 0.316 µM) is 113% and 116%; the viability, T/C (compound 1 µM) is 108% and 111%; the viability, T/C (compound 3.16 µM) was 106% and 95.6%; the viability, T/C (compound 10 µM) is 73.4% and 68.4%. In addition, the half-maximal inhibitory concentration (IC50) (curve of compound) was over 10000 nM.

Consider `Cc1nc(NC(=O)N2CCCC2C(N)=O)sc1-c1ccnc(C(C)(C)C(F)(F)F)c1` (stereo not given), for which the viability, T/C is 96.6% and 110% (compound 0.0316 µM); 93.1% and 95.3% (compound 0.1 µM); 79.6% and 79.2% (compound 0.316 µM); 60% and 58.8% (compound 1 µM); 42.5% and 45.5% (compound 3.16 µM); 13.9% and 16.4% (compound 10 µM). Further, the IC50 (curve of compound) is 1930 nM and 1900 nM.

Values taken from PubChem BioAssay AID2060331 (Molecular Pharmacology Branch, DTP, NCI, 2025).
